Measured values from US6166004A, “Combinations of HIV protease inhibitors with reverse transcriptase inhibitors” (Novartis Finance Corporation, priority 1996, dated 2000).

Tests used:
[1] = tested on: HIV-1 protease resistant variant (451/76F strain)
From the text: (§1) Inhibitor-resistant HIV-1 protease variants are cloned as follows:
(§2) By way of PCR-supported mutagenesis and cloning, HIV-1 protease mutants are generated that are based on the infectious clone pNL4-3 (freely available via the "NIH AIDS reference and reagent program", the original reference is A. Adachi et al. J. Virol (1986) 59, 284-91--but it can, of course, be any other HIV clone, or even clinical material, provided that comparability is ensured). […] The cloned fragments are, for example, only 500 base pairs in length, all of the remainder being unchanged. By using mutations in always the same clone, direct comparability is ensured, which would not be the case in a direct comparison of clinical samples or of different HIV clones.
(§3) That system is used as a transient DNA transfection system for tests:
(§4) 1) in order to identify possible cross-resistances of protease variants to several protease inhibitors; and
(§5) 2) in order to establish the potency and resistance profile of novel inhibitor candidates.
(§6) Instead of the strains mentioned, there may be used any human T4-positive cells, such as the HeLaT4 cells, deposited under that name by Richard Axel and Paul Maddon in "NIH AIDS reference and reagent program" and obtainable via that source.

[2] = tested on: 46I/47V/50V (VX478) strain; test: Transient DNA transfection assay, resistant strain 46I/47V/50V (VX478); format: cell-based, HIV-1; conditions: 10 nM, not quantified
From the text: as §1, §2, §3, §4, §5, §6

[3] = tested on: HIV-1 (pNL4-3 clone) in HeLaT4 cells; test: Transient DNA transfection assay in HeLaT4 cells (HIV clone pNL4-3), potency; format: cell-based; conditions: transfection system
From the text: as §1, §2, §3, §4, §5, §6

## COC(=O)N[C@H](C(=O)N[C@@H](Cc1ccccc1)[C@@H](O)CN(Cc1ccc(-c2ccccn2)cc1)NC(=O)[C@@H](NC(=O)OC)C(C)(C)C)C(C)(C)C [Example 46, 1-[4-(Pyridin-2-yl)-phenyl]-4(S)-hydroxy-5(S)-2,5-bis[N-(N-methoxycarbonyl-(L)-tert-leucyl)amino]-6-phenyl-2-azahexane]
[1]
  activity against resistant variant compared with other protease inhibitors: comparable with saquinavir and better than that of indinavir (Merck & Co., Inc., see below) or ritonavir
[2]
  activity compared with saquinavir, ritonavir and indinavir: more potent (not quantified) than that of saquinavir, ritonavir and indinavir
[3]
  in vitro potency compared with saquinavir: in practical terms better than that of saquinavir
